Test results from article PMC9500072, “Topical application of an irreversible small molecule inhibitor of lysyl oxidases ameliorates skin scarring and fibrosis” (Nature Communications, 2022).
“And” between values parts separate entries of the source, which are not always exact repeats. Identical values can stand only once.

Assays:
Bovine (aorta) LOX = molecular target: T1, Bovine (aorta) LOX (Bos taurus, UniProt P33072); assay: Amplex Red oxidation assay, LOX inhibition; type: biochemical; settings: 30 min pre-incubation
T1 construct: Bovine (aorta) LOX used for analog screening due to ready availability; from tissue; host or cells: bovine aorta
T1 sequence (P33072 170-418): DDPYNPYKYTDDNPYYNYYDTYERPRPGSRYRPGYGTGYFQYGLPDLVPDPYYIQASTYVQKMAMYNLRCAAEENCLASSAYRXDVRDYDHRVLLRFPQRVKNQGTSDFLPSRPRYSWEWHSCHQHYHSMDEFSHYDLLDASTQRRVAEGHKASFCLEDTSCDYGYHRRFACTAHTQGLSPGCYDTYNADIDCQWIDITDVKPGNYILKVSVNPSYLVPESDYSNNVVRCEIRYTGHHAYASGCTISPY
Protocol: (§1) The measurement of the enzymatic activity of all lysyl oxidase family members was based on the detection of hydrogen peroxide with an Amplex-Red oxidation assay, as previously described; miniaturized in 384 well formats, with the appropriate combination of substrate and assay buffer for each individual enzyme. After a 30 min pre-incubation of the enzyme at 37 °C with the test compound (or with different incubation times for the time-dependency assay), one volume of reaction mixture containing 120 μM Amplex Red (AR) (Life Technologies), 1.5 U/mL horseradish peroxidase (HRP) (Sigma-Aldrich) and the specific substrate was added to each sample. The relative fluorescence units (RFU) were then measured every 2.5 min for 30 min at 37 °C, excitation 565 nm and emission 590, on a BMG Clariostar Microplate Reader. All the substrates were used at concentrations corresponding to their Km towards the corresponding enzyme, or with a range of different concentrations for the substrate competition experiments.
(§2) Lysyl oxidases assay buffer contained 1.2 M urea, 50 mM sodium borate buffer, pH 8.2 and 100 µM β-aminoproprionitrile (BAPN, Sigma-Aldrich) was used for low control.

chicken lysyl oxidase = system: chicken lysyl oxidase; parameters: method as in earlier work; settings: cited from earlier work
Human recombinant LOXL2 = molecular target: T2, Human recombinant LOXL2 (Homo sapiens, UniProt Q9Y4K0); assay: Amplex Red oxidation assay, LOXL2 inhibition; type: biochemical; settings: 30 min pre-incubation; read-out: LOXL2 IC50
T2 construct: purchased R&D Systems
T2 sequence (Q9Y4K0 26-774): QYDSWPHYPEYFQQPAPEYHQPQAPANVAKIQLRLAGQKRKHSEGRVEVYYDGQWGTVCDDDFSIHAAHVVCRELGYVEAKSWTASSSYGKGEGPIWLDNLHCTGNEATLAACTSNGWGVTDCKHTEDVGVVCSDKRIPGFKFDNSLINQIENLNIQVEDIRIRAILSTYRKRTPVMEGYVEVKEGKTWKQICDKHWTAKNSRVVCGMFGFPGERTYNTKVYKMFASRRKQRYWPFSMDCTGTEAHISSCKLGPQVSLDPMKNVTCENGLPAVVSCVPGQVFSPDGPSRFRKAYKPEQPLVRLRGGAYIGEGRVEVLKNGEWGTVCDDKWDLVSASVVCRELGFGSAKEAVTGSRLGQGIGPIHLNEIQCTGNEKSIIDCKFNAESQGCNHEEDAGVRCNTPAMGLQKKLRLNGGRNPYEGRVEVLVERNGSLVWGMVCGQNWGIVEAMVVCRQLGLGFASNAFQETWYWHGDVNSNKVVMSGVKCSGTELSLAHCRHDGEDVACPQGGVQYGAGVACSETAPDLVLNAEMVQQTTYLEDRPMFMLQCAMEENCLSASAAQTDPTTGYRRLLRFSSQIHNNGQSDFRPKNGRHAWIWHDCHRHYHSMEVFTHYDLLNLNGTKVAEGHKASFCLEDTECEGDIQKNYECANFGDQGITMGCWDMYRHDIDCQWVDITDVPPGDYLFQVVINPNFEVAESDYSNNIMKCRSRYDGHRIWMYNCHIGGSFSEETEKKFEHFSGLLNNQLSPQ
Protocol: (§3) For compound oxidation assays, the amount of hydrogen peroxide generated at a single concentration (30 µM) of compound relative to DMSO was measured.
as §1, §2
Recombinant human LOXL1 was expressed and purified from cDNA (GeneArt) and 10 mM putrescine was used as substrate. Recombinant human and mouse LOXL2 (R&D Systems) were challenged with 5 mM putrescine (Sigma-Aldrich) as the substrate. Rat and dog recombinant LOXL2 were amplified and purified in house from HEK-293 clones kindly provided by Dr. Fernando Rodríguez Pascual, Madrid University, and used in the same conditions as for the human form. 2 mM putrescine was used as the substrate for recombinant human LOXL3 (R&D Systems) and LOXL4 (Dr. Fernando Rodríguez Pascual, university of Madrid, Spain) assays.

Human Recombinant SSAO = molecular target: T3, Human Recombinant SSAO (Homo sapiens, UniProt Q16853); assay: Compound oxidation assay (substrate propensity) by SSAO; type: biochemical; settings: single concentration 30 µM
T3 sequence (Q16853 1-763): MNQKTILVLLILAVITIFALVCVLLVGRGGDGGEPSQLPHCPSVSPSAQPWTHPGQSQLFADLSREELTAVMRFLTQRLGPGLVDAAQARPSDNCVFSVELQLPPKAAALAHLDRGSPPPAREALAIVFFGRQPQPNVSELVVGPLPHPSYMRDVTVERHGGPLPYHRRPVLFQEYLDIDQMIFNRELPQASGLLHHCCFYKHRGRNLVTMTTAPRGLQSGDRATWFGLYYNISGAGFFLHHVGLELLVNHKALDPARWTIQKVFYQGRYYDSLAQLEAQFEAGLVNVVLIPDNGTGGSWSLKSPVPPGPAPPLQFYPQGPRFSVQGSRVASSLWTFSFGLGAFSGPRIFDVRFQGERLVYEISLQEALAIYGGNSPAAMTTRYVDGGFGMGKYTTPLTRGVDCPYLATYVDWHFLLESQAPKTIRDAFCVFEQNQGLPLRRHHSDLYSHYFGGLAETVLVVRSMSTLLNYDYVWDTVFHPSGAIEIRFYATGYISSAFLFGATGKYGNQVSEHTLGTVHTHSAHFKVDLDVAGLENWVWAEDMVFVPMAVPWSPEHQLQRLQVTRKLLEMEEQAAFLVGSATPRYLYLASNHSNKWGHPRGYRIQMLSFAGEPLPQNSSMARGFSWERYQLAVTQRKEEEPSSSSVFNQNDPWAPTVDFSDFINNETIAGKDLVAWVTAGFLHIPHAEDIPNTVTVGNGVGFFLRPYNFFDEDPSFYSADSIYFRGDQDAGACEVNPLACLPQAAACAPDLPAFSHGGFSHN
Protocol: as §3
Data are expressed as mean ± SEM. Subsequent statistical analysis was performed with unpaired two-sided Student’s t tests. *p < 0.05, **p < 0.01, ***p < 0.001and ****p < 0.0001. Source data are provided as a Source Data file.
This assay determines the substrate propensity of a compound relative to background (dimethyl sulfoxide only). Compound oxidation by rhSSAO was measured by fluorometric assay. Briefly, rhSSAO was incubated for 2 h at 37 °C in HEPES buffer before the addition of an equal volume of Amplex Red ([…]), horseradish peroxidase (4 U/ml), and test compound in the same buffer. The kinetics of the formation of resorufin was measured immediately using Optima reader (BMG Labtech GmbH, Ortenburg, Germany), at 37 °C.

[1] = Franz Cell skin permeability assay; type: in vitro ADME, human; settings: average of 3 samples

| Compound | IC50 (Bovine (aorta) LOX) | IC50 (Human recombinant LOXL2) | Oxidation by SSAO (hydrogen peroxide generated relative to DMSO) (Human Recombinant SSAO) | also measured |
| --- | --- | --- | --- | --- |
| NC/C(=C/F)CCc1ccc(F)cc1 [Mofegiline, mofegiline, reference compound] | 56 µM | > 10 µM | 1.0 | inhibition of chicken lysyl oxidase activity (chicken lysyl oxidase): modest inhibitor |
| NC/C=C(\F)C(F)(F)S(=O)(=O)c1ccccc1 [Samples 6302] | – | – | – | Avg. 6302 concentration ([1]; 0hr): 0 µM; Avg.6302 concentration ([1]; 0hr): 0.000 ng/mL; Avg. 6302 concentration ([1]; 2hr): 0.017 µM; Avg.6302 concentration ([1]; 2hr): 4.559 ng/mL; Avg. 6302 concentration ([1]; 4hr): 0.042 µM; Avg.6302 concentration ([1]; 4hr): 11.109 ng/mL; Avg. 6302 concentration ([1]; 6hr): 0.166 µM; Avg.6302 concentration ([1]; 6hr): 44.135 ng/mL; Avg. 6302 concentration ([1]; 20hr): 1.742 µM; Avg.6302 concentration ([1]; 20hr): 462.127 ng/mL |
| NCC(=CF)COc1ccccc1 [compound 1] | > 30 µM | 9.5 µM | 1.1 | – |
| NC/C(=C\F)COc1ccccc1 [compound 2] | > 30 µM | 8.7 µM | 1.1 | – |
| NC/C=C(/F)COc1ccccc1 [compound 3] | 13.5 µM | 2.9 µM | 12.0 | – |
| NC/C=C(\F)COc1ccccc1 [compound 4] | 8.4 µM and 8 µM | 1.1 µM | – | – |
| NC/C=C(\F)CN1CCc2ccccc21 [compound 5] | 10.8 µM | 0.9 µM | 2.6 | – |
| NC/C=C(\F)CNc1ccccc1 [compound 6] | 13.6 µM | 3.4 µM | 5.5 | – |
| NC/C=C(\F)CSc1ccccc1 [compound 7] | 8.5 µM | 1.1 µM | 68 | – |
